Test results: US20220002279A1, “NOVEL IMIDAZOLE DERIVATIVE” (priority 2018, published 2022)
pIC50: −log10 of the molar value. In brackets after ≈: the same amount, converted by molar mass. Like-named read-outs stand apart in the source and are kept apart here.

Key:
[1] = molecular target: T1, Escherichia coli LpxC enzyme (Escherichia coli, UniProt P0A725); assay: Inhibitory activity on Escherichia coli LpxC enzyme (fluorescamine method); type: biochemical
T1 construct: made in house; host or cells: Escherichia coli
T1 sequence (P0A725 1-305): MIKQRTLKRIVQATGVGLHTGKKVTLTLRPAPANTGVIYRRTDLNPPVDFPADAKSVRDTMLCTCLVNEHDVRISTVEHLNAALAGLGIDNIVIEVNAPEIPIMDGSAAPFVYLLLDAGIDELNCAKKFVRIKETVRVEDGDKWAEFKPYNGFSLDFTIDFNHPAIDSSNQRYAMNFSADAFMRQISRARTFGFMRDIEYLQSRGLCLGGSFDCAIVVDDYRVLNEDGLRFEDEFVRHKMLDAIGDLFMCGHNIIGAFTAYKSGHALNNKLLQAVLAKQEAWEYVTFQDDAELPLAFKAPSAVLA
Experimental: To assay the activity of Escherichia coli LpxC enzyme, LpxC was reacted with its substrate, UDP-3-O-(R-3-hydroxymyristoyl)-N-acetylglucosamine, and the amount of the reaction product was quantified by the amino groups present in the product
The reaction was terminated by the addition of 1.0 mg/mL-fluorescamine dissolved in a solvent obtained by mixing an equal amount of acetonitrile and dimethylformamide with the reaction mixture, and then, a 0.2 mol/L-sodium phosphate buffer solution (pH 8.0) was added thereto, and the amount of the reaction product was detected at an excitation wavelength/fluorescence wavelength=390 nm/495 nm. An inhibition curve was obtained by performing the aforementioned reaction in the presence of various concentrations of test compounds.

[2] = test system: Escherichia coli strain ATCC25922; assay: Antimicrobial activity, MIC by broth microdilution; type: cell-based; settings: ATCC25922, 18 h, cation-adjusted Mueller-Hinton broth, about 5×10^5 CFU/mL, 35° C., about 18 hours, read-out: MIC Escherichia coli ATCC25922
How it was run: (§1)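 CLSI-based broth microdilution in cation-adjusted Mueller-Hinton broth, inoculum about 5×10^5 CFU/mL from overnight heart infusion agar culture. Incubation 35° C. about 18 h; MIC is the lowest concentration with no visible growth.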

[3] = test system: Klebsiella pneumoniae strain ATCC13883; assay: Antimicrobial activity, MIC by broth microdilution; type: cell-based; settings: ATCC13883, cation-adjusted Mueller-Hinton broth, about 5×10^5 CFU/mL, 35° C., about 18 hours, read-out: MIC Klebsiella pneumoniae ATCC13883
How it was run: as §1

[4] = test system: Pseudomonas aeruginosa strain ATCC27853; assay: Antimicrobial activity, MIC by broth microdilution; type: cell-based; settings: ATCC27853, 18 h, cation-adjusted Mueller-Hinton broth, about 5×10^5 CFU/mL, 35° C., about 18 hours, read-out: MIC Pseudomonas aeruginosa ATCC27853
How it was run: as §1

[5] = fluorescamine detection, 3.1 nmol/L enzyme, 20 μmol/L substrate, pH 6.5, 120 min, read-out: IC50 (inhibitory activity on Escherichia coli LpxC enzyme, Fluoresamine method)

Compound	pIC50 [1, 5]	MIC [2]	MIC [3]	MIC [4]	pIC50 [1]
COCC(O)CN1C[C@@H]2[C@@H](C#Cc3ccc(-c4cc(Cn5ccnc5[C@H](C)O)no4)cc3)[C@@H]2C1 (stereo partly drawn) [Compound 57, 1-[(1R,5S,6s)-6-({4-[3-((2-[(1S)-1-hydroxyethyl]-1H-imidazol-1-yl}methyl)-1,2-oxazol-5-yl]phenyl}ethynyl)-3-azabicyclo[3.1.0]hexan-3-yl]-3-methoxypropan-2-ol]	7.15	0.5 µg/mL (≈ 1.08 µM)	0.5 µg/mL (≈ 1.08 µM)	8 µg/mL (≈ 17.3 µM)	–
CCN1C[C@@H]2[C@@H](C#Cc3ccc(-c4cc(Cn5ccnc5[C@H](C)O)no4)cc3)[C@@H]2C1 [Compound 99, (1S)-1-(1-{[5-(4-{[(1R,5S,6s)-3-ethyl-3-azabicyclo[3.1.0]hexan-6-yl]ethynyl}phenyl)-1,2-oxazol-3-yl]methyl}-1H-imidazol-2-yl)ethan-1-ol]	7.04	2 µg/mL (≈ 4.97 µM)	2 µg/mL (≈ 4.97 µM)	16 µg/mL (≈ 39.8 µM)	–
C[C@H](O)c1nccn1Cc1cc(-c2ccc(C#C[C@@H]3[C@H]4CN(C5COC5)C[C@@H]34)cc2)on1 [Compound 59, (1S)-1-(1-{[5-(4-{[(1R,5S,6s)-3-(Oxetan-3-yl)-3-azabicyclo[3.1.0]hexan-6-yl]ethynyl}phenyl)-1,2-oxazol-3-yl]methyl}-1H-imidazol-2-yl)ethan-1-ol]	–	0.5 µg/mL (≈ 1.16 µM)	0.5 µg/mL (≈ 1.16 µM)	> 16 µg/mL	7.45
C[C@H](O)c1nccn1Cc1cc(-c2ccc(C#CC3(O)CC3)cc2)on1 [Compound 52, 1-({4-[3-({2-[(1S)-1-hydroxyethyl]-1H-imidazol-1-yl}methyl)-1,2-oxazol-5-yl]phenyl}ethynyl)cyclopropan-1-ol]	7.08	2 µg/mL (≈ 5.72 µM)	4 µg/mL (≈ 11.4 µM)	128 µg/mL (≈ 366 µM)	–
C[C@H](O)c1nccn1Cc1cc(-c2ccc(C#C[C@@H]3[C@H]4CN(C(=O)C(=O)N(C)C)C[C@@H]34)cc2)on1 [Compound 108, 2-[(1R,5S,6s)-6-((4-[3-((2-[(1S)-1-hydroxyethyl]-1H-imidazol-1-yl}methyl)-1,2-oxazol-5-yl]phenyl}ethynyl)-3-azabicyclo[3.1.0]hexan-3-yl]-N,N-dimethyl-2-oxoacetamide]	6.91	4 µg/mL (≈ 8.45 µM)	4 µg/mL (≈ 8.45 µM)	16 µg/mL (≈ 33.8 µM)	–
C[C@H](O)c1nccn1[C@H](CN)c1cc(-c2ccc(C#CC3CC3CO)cc2)on1 (relative stereo) [Compound 80, (1S)-1-(1-((1R)-2-amino-1-[5-(4-{[trans-2-(hydroxymethyl)cyclopropyl]ethynyl}phenyl)-1,2-oxazol-3-yl]ethyl}-1H-imidazol-2-yl)ethan-1-ol]	7.09	0.25 µg/mL (≈ 0.637 µM)	1 µg/mL (≈ 2.55 µM)	4 µg/mL (≈ 10.2 µM)	–
C[C@H](O)c1nccn1Cc1cc(-c2ccc(C#CC3(N(C)C)CC3)cc2)on1 [Compound 50, (1S)-1-(1-{[5-(4-{[1-(dimethylamino)cyclopropyl]ethynyl}phenyl)-1,2-oxazol-3-yl]methyl}-1H-imidazol-2-yl)ethan-1-ol]	6.69	2 µg/mL (≈ 5.31 µM)	4 µg/mL (≈ 10.6 µM)	> 128 µg/mL	–
C[C@H](O)c1nccn1Cc1cc(-c2ccc(C#CC3COC3)cc2)on1 [Compound 44, (1S)-1-{1-[(5-{4-[(oxetan-3-yl)ethynyl]phenyl}-1,2-oxazol-3-yl)methyl]-1H-imidazol-2-yl}ethan-1-ol]	7.64	2 µg/mL (≈ 5.72 µM)	2 µg/mL (≈ 5.72 µM)	128 µg/mL (≈ 366 µM)	–
C[C@H](O)c1nccn1[C@H](CN)c1cc(-c2ccc(C#CC3CC3)cc2)no1 [Compound 82, (1S)-1-{1-[(1R)-2-Amino-1-{3-[4-(cyclopropylethynyl)phenyl]-1,2-oxazol-5-yl}ethyl]-1H-imidazol-2-yl}ethan-1-ol]	7.09	0.12 µg/mL (≈ 0.331 µM)	0.25 µg/mL (≈ 0.69 µM)	16 µg/mL (≈ 44.1 µM)	–
C[C@H](O)c1nccn1Cc1cc(-c2ccc(C#C[C@H]3C[C@H](NC=O)C3)cc2)on1 [Compound 103, N-[trans-3-({4-[3-({2-[(1S)-1-Hydroxyethyl]-1H-imidazol-1-yl}methyl)-1,2-oxazol-5-yl]phenyl}ethynyl)cyclobutyl]formamide]	–	1 µg/mL (≈ 2.56 µM)	2 µg/mL (≈ 5.12 µM)	> 128 µg/mL	7.06
C[C@H](O)c1nccn1Cc1cc(-c2ccc(C#C[C@@H]3[C@H]4CN(CCCCC(=O)O)C[C@@H]34)cc2)on1 [Compound 93, 5-[(1R,5S,6s)-6-({4-[3-((2-[(1S)-1-hydroxyethyl]-1H-imidazol-1-yl}methyl)-1,2-oxazol-5-yl]phenyl}ethynyl)-3-azabicyclo[3.1.0]hexan-3-yl]pentanoic acid]	6.43	4 µg/mL (≈ 8.43 µM)	4 µg/mL (≈ 8.43 µM)	8 µg/mL (≈ 16.9 µM)	–
CC(=O)N1C[C@@H]2[C@@H](C#Cc3ccc(-c4cc(Cn5ccnc5[C@H](C)O)on4)cc3)[C@@H]2C1 [Compound 86, 1-[(1R,5S,6s)-6-({4-[5-((2-[(1S)-1-hydroxyethyl]-1H-imidazol-1-yl}methyl)-1,2-oxazol-3-yl]phenyl}ethynyl)-3-azabicyclo[3.1.0]hexan-3-yl]ethan-1-one]	7.33	1 µg/mL (≈ 2.4 µM)	1 µg/mL (≈ 2.4 µM)	32 µg/mL (≈ 76.8 µM)	–
C[C@H](O)c1nccn1Cc1cc(-c2ccc(C#CC3CCN(C=O)CC3)cc2)on1 [Compound 127, 4-({4-[3-({2-[(1S)-1-hydroxyethyl]-1H-imidazol-1-yl}methyl)-1,2-oxazol-5-yl]phenyl}ethynyl)piperidine-1-carbaldehyde]	7.22	2 µg/mL (≈ 4.94 µM)	2 µg/mL (≈ 4.94 µM)	> 64 µg/mL	–
C[C@H](O)c1nccn1Cc1cc(-c2ccc(C#CCNC3CC3)cc2)on1 [Compound 51, (1S)-1-{1-[(5-(4-[3-(cyclopropylamino)prop-1-yn-1-yl]phenyl}-1,2-oxazol-3-yl)methyl]-1H-imidazol-2-yl}ethan-1-ol]	6.74	1 µg/mL (≈ 2.76 µM)	2 µg/mL (≈ 5.52 µM)	> 32 µg/mL	–
C[C@H](O)c1nccn1Cc1cc(-c2ccc(C#CC3(C)CN(C)C3)cc2)on1 [Compound 35, (1S)-1-{1-[(5-{4-[(1,3-dimethylazetidin-3-yl)ethynyl]phenyl}-1,2-oxazol-3-yl)methyl]-1H-imidazol-2-yl}ethan-1-ol]	6.09	4 µg/mL (≈ 10.6 µM)	16 µg/mL (≈ 42.5 µM)	> 128 µg/mL	–
C[C@H](O)c1nccn1Cc1cc(-c2ccc(C#CCO)cc2)on1 [Compound 48, 3-{4-[3-((2-[(1S)-1-hydroxyethyl]-1H-imidazol-1-yl}methyl)-1,2-oxazol-5-yl]phenyl}prop-2-yn-1-ol]	6.44	16 µg/mL (≈ 49.5 µM)	32 µg/mL (≈ 99 µM)	> 32 µg/mL	–
COCCN1CC(C)(C#Cc2ccc(-c3cc(Cn4ccnc4[C@H](C)O)no3)cc2)C1 [Compound 41, (1S)-1-(1-{[5-(4-{[l-(2-methoxyethyl)-3-methylazetidin-3-yl]ethynyl}phenyl)-1,2-oxazol-3-yl]methyl}-1H-imidazol-2-yl)ethan-1-ol]	6.64	2 µg/mL (≈ 4.76 µM)	4 µg/mL (≈ 9.51 µM)	> 128 µg/mL	–
C[C@H](O)c1nccn1Cc1cc(-c2ccc(C#CC3CC(N(C)C)C3)cc2)on1 (stereo partly drawn) [Compound 97, (1S)-1-(i{[5-(4-{[3-(dimethylamino)cyclobutyl]ethynyl}phenyl)-1,2-oxazol-3-yl]methyl}-1H-imidazol-2-yl)ethan-1-ol]	7.00	4 µg/mL (≈ 10.2 µM)	8 µg/mL (≈ 20.5 µM)	32 µg/mL (≈ 81.9 µM)	–
COCCN1C[C@@H]2[C@@H](C#Cc3ccc(-c4cc(Cn5ccnc5[C@H](C)O)on4)cc3)[C@@H]2C1 [Compound 84, (1S)-1-(1-{[3-(4-{[(1R,5S,6s)-3-(2-methoxyethyl)-3-azabicyclo[3.1.0]hexan-6-yl]ethynyl}phenyl)-1,2-oxazol-5-yl]methyl}-1H-imidazol-2-yl)ethan-1-ol]	6.99	0.5 µg/mL (≈ 1.16 µM)	0.5 µg/mL (≈ 1.16 µM)	16 µg/mL (≈ 37 µM)	–
C[C@H](O)c1nccn1Cc1cc(-c2ccc(C#C[C@@H]3[C@H]4CNC[C@@H]34)cc2)no1 [Compound 83, (1S)-1-(1-{[3-(4-{[(1R,5S,6s)-3-azabicyclo[3.1.0]hexan-6-yl]ethynyl}phenyl)-1,2-oxazol-5-yl]methyl}-1H-imidazol-2-yl)ethan-1-ol]	6.87	8 µg/mL (≈ 21.4 µM)	8 µg/mL (≈ 21.4 µM)	8 µg/mL (≈ 21.4 µM)	–
